Toxic doses and inconclusive results are not listed.
System: L1210 leukemia ip in BDF1 mice, survival T/C
Experiment: NCI In Vivo Anticancer Drug Screen. Data for tumor model L1210 Leukemia (intraperitoneal) in B6D2F1 (BDF1) mice
Conditions: endpoint: mean survival time, higher = longer survival
Method in brief: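 Transplantable tumor model; survival measured in treated vs vehicle control mice. Value = treated/control.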

[1] = dose: 25.0 mg/kg/injection, schedule: Q01DX001 (ip), vehicle: carboxymethylcellulose (CMC)
[2] = dose: 50.0 mg/kg/injection, schedule: Q01DX001 (ip), vehicle: carboxymethylcellulose (CMC)
[3] = dose: 100.0 mg/kg/injection, schedule: Q01DX001 (ip), vehicle: carboxymethylcellulose (CMC)
[4] = dose: 100.0 mg/kg/injection, schedule: Q04DX003 (ip), vehicle: Klucel (hydroxypropylcellulose) (HPC)
[5] = dose: 200.0 mg/kg/injection, schedule: Q04DX003 (ip), vehicle: Klucel (hydroxypropylcellulose) (HPC)
[6] = dose: 100.0 mg/kg/injection, schedule: Q04DX003 (ip), vehicle: saline with Tween-80
[7] = dose: 200.0 mg/kg/injection, schedule: Q04DX003 (ip), vehicle: saline with Tween-80
[8] = dose: 400.0 mg/kg/injection, schedule: Q04DX003 (ip), vehicle: saline with Tween-80
[9] = dose: 100.0 mg/kg/injection, schedule: Q04DX003 (ip), vehicle: saline
[10] = dose: 200.0 mg/kg/injection, schedule: Q04DX003 (ip), vehicle: saline
[11] = dose: 400.0 mg/kg/injection, schedule: Q04DX003 (ip), vehicle: saline
[12] = dose: 200.0 mg/kg/injection, schedule: Q01DX001 (ip), vehicle: carboxymethylcellulose (CMC)

## Cc1c(CNc2ccc(C(=O)NC(CC(=O)O)C(=O)O)cc2)ccc2nc(N)nc(N)c12 (stereo unspecified)
dose: 0.05 mg/kg/injection, schedule: Q01DX009 (ip), vehicle: other
  T/C: 122 % of control
dose: 0.06 mg/kg/injection, schedule: Q01DX009 (ip), vehicle: other
  T/C: 117 % of control
dose: 0.1 mg/kg/injection, schedule: Q01DX009 (ip), vehicle: carboxymethylcellulose (CMC)
  T/C: 94 % of control
dose: 0.1 mg/kg/injection, schedule: Q01DX009 (ip), vehicle: other
  T/C: 152 % of control
dose: 0.19 mg/kg/injection, schedule: Q01DX009 (ip), vehicle: other
  T/C: 115 % of control
dose: 0.19 mg/kg/injection, schedule: Q01DX009 (ip), vehicle: water
  T/C: 175 % of control
dose: 0.25 mg/kg/injection, schedule: Q01DX009 (ip), vehicle: other
  T/C: 101 % of control
dose: 0.38 mg/kg/injection, schedule: Q01DX009 (ip), vehicle: other
  T/C: 102 % of control
dose: 0.38 mg/kg/injection, schedule: Q01DX009 (ip), vehicle: water
  T/C: 116 % of control
dose: 0.5 mg/kg/injection, schedule: Q02DX005 (ip), vehicle: water
  T/C: 205 % of control
dose: 0.75 mg/kg/injection, schedule: Q01DX009 (ip), vehicle: carboxymethylcellulose (CMC)
  T/C: 91 % of control
dose: 0.75 mg/kg/injection, schedule: Q01DX009 (ip), vehicle: water
  T/C: 94 % of control
dose: 1.0 mg/kg/injection, schedule: Q02DX005 (ip), vehicle: water
  T/C: 158 % of control
dose: 1.5 mg/kg/injection, schedule: Q01DX009 (ip), vehicle: water
  T/C: 98 % of control
dose: 1.56 mg/kg/injection, schedule: Q01DX001 (ip), vehicle: other
  T/C: 124 % of control
dose: 1.69 mg/kg/injection, schedule: Q04DX003 (ip), vehicle: water
  T/C: 167 % of control
dose: 3.0 mg/kg/injection, schedule: Q01DX009 (ip), vehicle: water
  T/C: 97 % of control
dose: 3.38 mg/kg/injection, schedule: Q04DX003 (ip), vehicle: water
  T/C: 173 % of control
dose: 4.0 mg/kg/injection, schedule: Q02DX005 (ip), vehicle: water
  T/C: 118 % of control
dose: 6.75 mg/kg/injection, schedule: Q04DX003 (ip), vehicle: water
  T/C: 195 % of control
dose: 8.0 mg/kg/injection, schedule: Q02DX005 (ip), vehicle: water
  T/C: 89 % of control
dose: 12.5 mg/kg/injection, schedule: Q01DX001 (ip), vehicle: other
  T/C: 159 % of control
dose: 13.5 mg/kg/injection, schedule: Q04DX003 (ip), vehicle: water
  T/C: 224 % of control
[1]
  T/C: 98 % of control
dose: 25.0 mg/kg/injection, schedule: Q01DX001 (ip), vehicle: other
  T/C: 98 % of control
dose: 27.0 mg/kg/injection, schedule: Q04DX003 (ip), vehicle: water
  T/C: 119 % of control
[2]
  T/C: 155 % of control
[3]
  T/C: 158 % of control

## O=C(O)c1c[nH]c(=O)c([N+](=O)[O-])c1
dose: 50.0 mg/kg/injection, schedule: Q04DX003 (ip), vehicle: Klucel (hydroxypropylcellulose) (HPC)
  T/C: 97 % of control
[4]
  T/C: 91 % of control
[5]
  T/C: 92 % of control

## c1ccc2c(c1)ccc1c[n+]3c(ccc4ccccc43)cc12
[1]
  T/C: 104 % of control
[2]
  T/C: 108 % of control

## Cc1ccc(S(=O)(=O)C=C(c2ccccc2)c2ccccc2)cc1
dose: 100.0 mg/kg/injection, schedule: Q01DX001 (ip), vehicle: Klucel (hydroxypropylcellulose) (HPC)
  T/C: 98 % of control
[4]
  T/C: 100 % of control
dose: 200.0 mg/kg/injection, schedule: Q01DX001 (ip), vehicle: Klucel (hydroxypropylcellulose) (HPC)
  T/C: 96 % of control
[5]
  T/C: 95 % of control
dose: 400.0 mg/kg/injection, schedule: Q01DX001 (ip), vehicle: Klucel (hydroxypropylcellulose) (HPC)
  T/C: 104 % of control
dose: 400.0 mg/kg/injection, schedule: Q04DX003 (ip), vehicle: Klucel (hydroxypropylcellulose) (HPC)
  T/C: 95 % of control

## O=c1[nH]c2ccc(Br)cc2cc1Br
dose: 100.0 mg/kg/injection, schedule: Q01DX001 (ip), vehicle: saline
  T/C: 97 % of control
dose: 200.0 mg/kg/injection, schedule: Q01DX001 (ip), vehicle: saline
  T/C: 97 % of control
dose: 400.0 mg/kg/injection, schedule: Q01DX001 (ip), vehicle: saline
  T/C: 97 % of control

## O=C(NC(=S)Nc1ccc(Cl)cc1C(=O)c1ccccc1)c1ccc(Cl)cc1Cl
dose: 100.0 mg/kg/injection, schedule: Q01DX009 (ip), vehicle: Klucel (hydroxypropylcellulose) (HPC)
  T/C: 93 % of control
dose: 200.0 mg/kg/injection, schedule: Q01DX009 (ip), vehicle: Klucel (hydroxypropylcellulose) (HPC)
  T/C: 96 % of control
dose: 400.0 mg/kg/injection, schedule: Q01DX009 (ip), vehicle: Klucel (hydroxypropylcellulose) (HPC)
  T/C: 94 % of control

## Clc1ccc(-c2nnc(-c3cccc4ccccc34)o2)cc1Cl
dose: 100.0 mg/kg/injection, schedule: Q01DX009 (ip), vehicle: saline with Tween-80
  T/C: 89 % of control
[6]
  T/C: 86 % of control
[7]
  T/C: 92 % of control
dose: 400.0 mg/kg/injection, schedule: Q01DX009 (ip), vehicle: saline with Tween-80
  T/C: 86 % of control
[8]
  T/C: 86 % of control

## CCOC(=O)C1CC[N+](=c2cc(-c3ccc(Cl)cc3)ss2)CC1 (stereo unspecified)
[9]
  T/C: 95 % of control
[10]
  T/C: 96 % of control
[11]
  T/C: 101 % of control

## O=NN(C(=O)Nc1ccccc1)C1CCCCC1
dose: 18.0 mg/kg/injection, schedule: Q01DX001 (ip), vehicle: carboxymethylcellulose (CMC)
  T/C: 96 % of control
dose: 37.0 mg/kg/injection, schedule: Q01DX001 (ip), vehicle: carboxymethylcellulose (CMC)
  T/C: 94 % of control
dose: 75.0 mg/kg/injection, schedule: Q01DX001 (ip), vehicle: carboxymethylcellulose (CMC)
  T/C: 98 % of control
[3]
  T/C: 105 % of control
dose: 150.0 mg/kg/injection, schedule: Q01DX001 (ip), vehicle: carboxymethylcellulose (CMC)
  T/C: 102 % of control
[12]
  T/C: 104 % of control
dose: 250.0 mg/kg/injection, schedule: Q01DX001 (ip), vehicle: carboxymethylcellulose (CMC)
  T/C: 102 % of control

## O=C(C(=O)c1ccccc1)c1ccccc1
dose: 25.0 mg/kg/injection, schedule: Q01DX009 (ip), vehicle: water
  T/C: 102 % of control
dose: 50.0 mg/kg/injection, schedule: Q01DX009 (ip), vehicle: water
  T/C: 96 % of control
dose: 100.0 mg/kg/injection, schedule: Q01DX009 (ip), vehicle: water
  T/C: 102 % of control
[6]
  T/C: 101 % of control
dose: 200.0 mg/kg/injection, schedule: Q01DX009 (ip), vehicle: water
  T/C: 107 % of control
[7]
  T/C: 97 % of control
dose: 400.0 mg/kg/injection, schedule: Q01DX009 (ip), vehicle: water
  T/C: 98 % of control
[8]
  T/C: 101 % of control

## CCOC(=O)CCCN(c1ccccc1C(=O)OC)S(=O)(=O)c1ccc(C)cc1
[3]
  T/C: 97 % of control
[12]
  T/C: 94 % of control
dose: 400.0 mg/kg/injection, schedule: Q01DX001 (ip), vehicle: carboxymethylcellulose (CMC)
  T/C: 103 % of control

## Cc1cccc([P+](Cc2ccccc2)(c2cccc(C)c2)c2cccc(C)c2)c1
dose: 15.0 mg/kg/injection, schedule: Q01DX001 (ip), vehicle: carboxymethylcellulose (CMC)
  T/C: 90 % of control

## Cc1c(C)c2c(c(C)c1O)CC(CO)CO2 (stereo unspecified)
dose: 100.0 mg/kg/injection, schedule: Q01DX001 (ip), vehicle: saline with Tween-80
  T/C: 92 % of control
dose: 200.0 mg/kg/injection, schedule: Q01DX001 (ip), vehicle: saline with Tween-80
  T/C: 101 % of control
dose: 400.0 mg/kg/injection, schedule: Q01DX001 (ip), vehicle: saline with Tween-80
  T/C: 87 % of control

## COC(=O)C(COS(=O)(=O)c1ccccc1)NC(=O)OCc1ccccc1 (stereo unspecified)
dose: 100.0 mg/kg/injection, schedule: Q01DX009 (ip), vehicle: saline
  T/C: 100 % of control
[9]
  T/C: 92 % of control
dose: 200.0 mg/kg/injection, schedule: Q01DX009 (ip), vehicle: saline
  T/C: 98 % of control
[10]
  T/C: 97 % of control
dose: 400.0 mg/kg/injection, schedule: Q01DX009 (ip), vehicle: saline
  T/C: 96 % of control
[11]
  T/C: 95 % of control

Reference: PubChem BioAssay AID248 (DTP/NCI, 2004)
